# In US20020173468A1, “MODIFIED CYTOSTATIC AGENTS” (priority 1996, published 2002):
# Where “and” joins values, the source holds several entries; their conditions need not be identical. Identical values can stand only once.
# Assays:
# [1] = tested on: B16F10 mouse melanoma cell line; assay: Growth inhibition test (MTT) for cytotoxic properties, B16F10; type: cell-based; conditions: B16F10 cells
# Protocol: (§1) 1. Growth Inhibition Test for the Determination of Cytotoxic Properties
# (§2) They were then trypsinized and taken up in RPMI plus 10% FCS to give a cell count of 50,000 cells/ml. 100 μl of cell suspension/well were added to a 96 microwell plate and incubated for 1 day at 37° C. in a CO2 incubator. A further 100 μl of RPMI medium and 1 μl of DMSO were then added with the test substances. The growth was checked after day 3 and day 6. To do this, 40 μl of MTT solution (3-(4,5-dimethylthiazol-2-yl)-2,5-diphenyl-tetrazolin bromide) were added to each microwell at a starting concentration of 5 mg/ml of H2O. Incubation was carried out at 37° C. for 5 hours in the CO2 incubator. The medium was then aspirated and 100 μl of i-propanol/well were added. After shaking for 30 min with 100 μl of H2O, the extinction was measured at 540 nm using a Titertek Multiskan MCC/340 (flow).
# (§3) The cytotoxic action is indicated in Table 1 as an IC50 value in each case for the SW 480 and HT 29 and B16F10 cell lines: […]
# [2] = tested on: SW 480 human colonic tumour cell line; assay: Growth inhibition test (MTT) for cytotoxic properties, SW 480; type: cell-based; conditions: SW 480 cells
# Protocol: as §1, §2, §3
# [3] = tested on: large-cell human lung tumour xenograft LXFL 529; assay: In-vivo inhibition of tumour growth in the nude mouse model; design: species or system athymic nude mice (NMRI nu/nu strain); conditions: for Relative tumour volume on day 21: control 1137; for Survival time: individual animals
# From the text: 3. In-vivo Inhibition of Tumour Growth in the Nude Mouse Model
# For all in-vivo experiments for investigation of the inhibition of tumour growth, athymic nude mice (NMRI nu/nu strain) were used. The selected large-cell lung carcinoma LXFL 529 was developed by serial passage in nude mice. The human origin of the tumour was confirmed by isoenzymatic and immunohistochemical methods.
# The tumour was implanted subcutaneously in both flanks of nu/nu nude mice 6 to 8 weeks old. The treatment was started, depending on the doubling time, as soon as the tumours had reached a diameter of 5-7 mm. The mice were assigned to the treatment group and to the control group (5 mice per group with 8-10 assessable tumours) by randomization. The individual tumours of the control group all grew progressively.
# The size of the tumours was measured in two dimensions by means of a slide gauge. The tumour volume, which correlated well with the cell count, was then used for all evaluations. The volume was calculated according to the formula “length×breadth×breadth/2” ([a×b^2]/2, a and b represent two diameters arranged at right angles).
# The values of the relative tumour volume (RTV) were calculated for each individual tumour by dividing the tumour size on day X by the tumour size on day 0 (at the time of randomization). The mean values of the RTV were then used for further evaluation.
# The inhibition of the increase in the tumour volume (tumour volume of the test group/control group, T/C, in per cent) was the final measured value.
# The administration of the compounds was carried out intraperitoneally (i.p.) on days 1, 2 and 3 after randomization.
# [4] = tested on: HT 29 human colonic tumour cell line; assay: Growth inhibition test (MTT) for cytotoxic properties, HT 29; type: cell-based; conditions: HT 29 cells
# Protocol: as §1, §2, §3
# [5] = tested on: mouse bone marrow stem cells; assay: Inhibition of the CSF-induced proliferation of mouse bone marrow stem cells (colony formation); type: cell-based; conditions: recombinant murine GM-CSF, 7 days
# Protocol: 2. Haematopoietic Activity of Conjugates in Comparison with the Basic Active Compound
# Bone marrow cells were rinsed from mouse femurs. 10^5 cells were incubated in McCoy 5A medium (0.3% agar) together with recombinant murine GM-CSF (Genzyme; stem cell colony formation) and the substances (10^−4 to 100 μg/ml) at 37° C. and 7% CO2. 7 days later, the colonies ([…]50 cells) and clusters (17-50 cells) were counted.
# [6] = 6.25 mg/kg/day (MTD) i.p. days 1-3
compound,measurement,setting,value
"CC[C@@]1(OC(=O)[C@@H](NC(=O)[C@H](CCCCN)NC(=S)Nc2ccc(O)cc2)C(C)C)C(=O)OCc2c1cc1n(c2=O)Cc2cc3ccccc3nc2-1.Cl [Example 4.4), 20-O-[N^α-(4-Hydroxy-phenylamino-thiocarbonyl)-lysyl-valyl]-camptothecin, hydrochloride]",IC50,[1],600 nM
same,IC50,[2],300 nM
same,Relative body weight on day 21,[3]; 3.125 mg/kg/day i.p. days 1-3,105.8 % of day 0
same,Relative tumour volume on day 21,[3]; 3.125 mg/kg/day i.p. days 1-3,69.5 % of day 0
same,Survival time,[3]; 3.125 mg/kg/day i.p. days 1-3,>43 >43 days
same,Relative body weight on day 21,[3]; [6],113.0 % of day 0
same,Relative tumour volume on day 21,[3]; [6],0.2 % of day 0
same,Survival time,"[3]; 6.25 mg/kg/day (MTD) i.p. days 1-3, hydrochloride",7 days and > 43 days and >43 >43 days
same,Maximum tolerable dose (MTD),"[3]; i.p. on days 1, 2 and 3, nude mice",6.25 mg/kg/day
same,Therapeutic efficacy against LXFL 529 xenograft (in words),[3]; therapy at the MTD and at half the MTD,tumour remission
same,IC50,[4],200 nM
same,"IC50, inhibition of the CSF-induced proliferation of mouse bone marrow stem cells",[5],0.01 µg/mL
